Laboratory results published in US20150105252A1, “SUBSTITUTED PYRAZOLES AS HERBICIDES” (E I DU PONT DE NEMOURS AND COMPANY, priority 2013, published 2015).

Experiments:
[1] = test system: johnsongrass; assay: Test C preemergence; assay type: in vivo, Sorghum halepense; details: for Plant response rating (scale of 0 to 100), Johnsongrass: Preemergence; for Johnsongrass plant response rating / Plant response rating, Johnsongrass: preemergence; for Plant response rating, Johnsongrass: 125 g ai/ha, scale 0 to 100, 0 = no effect, 100 = complete control
Summary of the method: (§1)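 Visual rating, 0–100 scale (0 no effect, 100 complete control), vs untreated controls after 13–15 d greenhouse. Pre: seeds in loam/sand, treated at sowing. Post: plants in peat-based mix, 1- to 4-leaf (2–18 cm). Solvent + surfactant formulation, non-phytotoxic.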

[2] = test system: blackgrass; assay: Test C preemergence; assay type: in vivo, Alopecurus myosuroides; details: for Plant response rating (scale of 0 to 100), Blackgrass: Preemergence; for Blackgrass plant response rating / Plant response rating, Blackgrass: preemergence; for Plant response rating, Blackgrass: 125 g ai/ha, scale 0 to 100, 0 = no effect, 100 = complete control
Summary of the method: as §1

[3] = test system: morningglory; assay: Test C preemergence; assay type: in vivo, Ipomoea coccinea; details: for Plant response rating (scale of 0 to 100), Morningglory: Preemergence; for Morningglory plant response rating / Plant response rating, Morningglory: preemergence; for Plant response rating, Morningglory: 125 g ai/ha, scale 0 to 100, 0 = no effect, 100 = complete control
Summary of the method: as §1

[4] = test system: ragweed; assay: Test C postemergence; assay type: in vivo, Ambrosia elation; details: for Plant response rating (scale of 0 to 100 where 0 is no effect and 100 is complete control), Ragweed: Postemergence, 31 g ai/ha, visually evaluated after 13 to 15 days; for Ragweed plant response rating / Plant response rating, Ragweed: postemergence; for Ragweed plant response rating: 62 g ai/ha, scale 0 to 100
Summary of the method: as §1

[5] = test system: ryegrass, Italian; assay: Test C preemergence; assay type: in vivo, Lolium multiflorum; details: for Plant response rating (scale of 0 to 100), Ryegrass, Italian: Preemergence; for Ryegrass, Italian plant response rating / Plant response rating, Ryegrass, Italian: preemergence; for Plant response rating, Ryegrass, Italian: 125 g ai/ha, scale 0 to 100, 0 = no effect, 100 = complete control
Summary of the method: as §1

[6] = test system: blackgrass; assay: Test C postemergence; assay type: in vivo, Alopecurus myosuroides; details: for Plant response rating (scale of 0 to 100 where 0 is no effect and 100 is complete control), Blackgrass: Postemergence, 31 g ai/ha, visually evaluated after 13 to 15 days; for Blackgrass plant response rating / Plant response rating, Blackgrass: postemergence; for Blackgrass plant response rating: 62 g ai/ha, scale 0 to 100
Summary of the method: as §1

[7] = test system: pigweed; assay: Test C postemergence; assay type: in vivo, Amaranthus retroflexus; details: for Plant response rating (scale of 0 to 100 where 0 is no effect and 100 is complete control), Pigweed: Postemergence, 31 g ai/ha, visually evaluated after 13 to 15 days; for Pigweed plant response rating / Plant response rating, Pigweed: postemergence; for Pigweed plant response rating: 62 g ai/ha, scale 0 to 100
Summary of the method: as §1

[8] = test system: pigweed; assay: Test C preemergence; assay type: in vivo, Amaranthus retroflexus; details: for Plant response rating (scale of 0 to 100), Pigweed: Preemergence; for Pigweed plant response rating / Plant response rating, Pigweed: preemergence; for Plant response rating, Pigweed: 125 g ai/ha, scale 0 to 100, 0 = no effect, 100 = complete control
Summary of the method: as §1

[9] = test system: morningglory; assay: Test C postemergence; assay type: in vivo, Ipomoea coccinea; details: for Plant response rating (scale of 0 to 100 where 0 is no effect and 100 is complete control), Morningglory: Postemergence, 31 g ai/ha, visually evaluated after 13 to 15 days; for Morningglory plant response rating / Plant response rating, Morningglory: postemergence; for Morningglory plant response rating: 62 g ai/ha, scale 0 to 100
Summary of the method: as §1

[10] = test system: barnyardgrass; assay: Test C preemergence; assay type: in vivo, Echinochloa crus-galli; details: for Plant response rating (scale of 0 to 100), Barnyardgrass: Preemergence; for Barnyardgrass plant response rating / Plant response rating, Barnyardgrass: preemergence; for Plant response rating, Barnyardgrass: 125 g ai/ha, scale 0 to 100, 0 = no effect, 100 = complete control
Summary of the method: as §1

[11] = 31 g ai/ha, visual rating, scale 0 to 100 (0 no effect, 100 complete control), 13 to 15 days
[12] = 62 g ai/ha, scale 0 to 100 (0 no effect, 100 complete control), 13 to 15 days
[13] = 250 g ai/ha, scale 0 to 100 (0 no effect, 100 complete control)
[14] = 125 g ai/ha, scale 0 to 100, 0 no effect, 100 complete control
[15] = 31 g ai/ha, scale 0 to 100 (0 no effect, 100 complete control), 13 to 15 days
[16] = 250 g ai/ha, scale 0 to 100, 0 is no effect, 100 is complete control

Compound | Johnsongrass plant response rating [1, 11] | Johnsongrass plant response rating [1, 12] | Plant response rating, Johnsongrass ([1]; 13 to 15 days) | Blackgrass plant response rating [2, 11] | Blackgrass plant response rating [2, 12] | Plant response rating, Blackgrass ([2]; 13 to 15 days) | Morningglory plant response rating [3, 11] | Morningglory plant response rating [3, 12] | Plant response rating, Morningglory ([3]; 13 to 15 days) | Plant response rating (scale of 0 to 100 where 0 is no effect and 100 is complete control), Ragweed [4] | Ragweed plant response rating [4] | Plant response rating, Ragweed [4, 13] | Plant response rating, Ragweed [4, 14] | Ryegrass, Italian plant response rating [5, 11] | Ryegrass, Italian plant response rating [5, 12] | Plant response rating, Ryegrass, Italian ([5]; 13 to 15 days) | Plant response rating (scale of 0 to 100 where 0 is no effect and 100 is complete control), Blackgrass [6] | Blackgrass plant response rating [6] | Plant response rating, Blackgrass [6, 13] | Plant response rating, Blackgrass [6, 14] | further results
CCCc1cc(C(=O)NCC(F)(F)F)nn1Cc1ccnc(OC(F)F)c1 [Compound 127] | 55 | 55 | 80 | 20 | 60 | 60 | 60 | 55 | 100 | 30 | 20 | 60 | 50 | 25 | 60 | 80 | 20 | 15 | 40 | 10 | Plant response rating (scale of 0 to 100), Johnsongrass ([1]; 250 g ai/ha): 90; Plant response rating (scale of 0 to 100), Blackgrass ([2]; 250 g ai/ha): 85; Plant response rating (scale of 0 to 100), Morningglory ([3]; 250 g ai/ha): 100; Plant response rating (scale of 0 to 100), Ryegrass, Italian ([5]; 250 g ai/ha): 80; Plant response rating (scale of 0 to 100 where 0 is no effect and 100 is complete control), Pigweed [7]: 35; Pigweed plant response rating [7]: 70; Plant response rating, Pigweed [7, 13]: 85; Plant response rating, Pigweed [7, 14]: 75; Plant response rating (scale of 0 to 100), Pigweed ([8]; 250 g ai/ha): 100; Pigweed plant response rating [8, 11]: 100; Pigweed plant response rating [8, 12]: 100; Plant response rating, Pigweed ([8]; 13 to 15 days): 100; Plant response rating (scale of 0 to 100 where 0 is no effect and 100 is complete control), Morningglory [9]: 65; Morningglory plant response rating [9]: 70; Plant response rating, Morningglory [9, 13]: 85; Plant response rating, Morningglory [9, 14]: 60; Plant response rating (scale of 0 to 100), Barnyardgrass ([10]; 250 g ai/ha): 95; Barnyardgrass plant response rating [10, 15]: 45; Barnyardgrass plant response rating [10, 12]: 60; Plant response rating, Barnyardgrass ([10]; 13 to 15 days): 95
CCOc1cc(C(=O)NCC(F)(F)F)nn1Cc1ccnc(OC(F)F)c1 [Compound 128] | 45 | 85 | 95 | 50 | 90 | 90 | 75 | 70 | 98 | 50 | 40 | 85 | 85 | 5 | 70 | 90 | 10 | 5 | 80 | 10 | Plant response rating (scale of 0 to 100), Johnsongrass ([1]; 250 g ai/ha): 98; Plant response rating (scale of 0 to 100), Blackgrass ([2]; 250 g ai/ha): 90; Plant response rating (scale of 0 to 100), Morningglory ([3]; 250 g ai/ha): 100; Plant response rating (scale of 0 to 100), Ryegrass, Italian ([5]; 250 g ai/ha): 95; Plant response rating (scale of 0 to 100 where 0 is no effect and 100 is complete control), Pigweed [7]: 65; Pigweed plant response rating [7]: 70; Plant response rating, Pigweed [7, 13]: 90; Plant response rating, Pigweed [7, 14]: 65; Plant response rating (scale of 0 to 100), Pigweed ([8]; 250 g ai/ha): 100; Pigweed plant response rating [8, 11]: 100; Pigweed plant response rating [8, 12]: 100; Plant response rating, Pigweed ([8]; 13 to 15 days): 100; Plant response rating (scale of 0 to 100 where 0 is no effect and 100 is complete control), Morningglory [9]: 75; Morningglory plant response rating [9]: 65; Plant response rating, Morningglory [9, 13]: 80; Plant response rating, Morningglory [9, 14]: 45; Plant response rating (scale of 0 to 100), Barnyardgrass ([10]; 250 g ai/ha): 100; Barnyardgrass plant response rating [10, 15]: 80; Barnyardgrass plant response rating [10, 12]: 90; Plant response rating, Barnyardgrass ([10]; 13 to 15 days): 98
CCCNC(=O)c1cc(OCC)n(Cc2ccnc(OC(F)F)c2)n1 [Compound 136] | 60 | 85 | 98 | 85 | 90 | 90 | 100 | 100 | 100 | 15 | 35 | 70 | 40 | 55 | 90 | 95 | 5 | 10 | 40 | 15 | Johnsongrass plant response rating [1, 16]: 100; Blackgrass plant response rating [2, 16]: 90; Morningglory plant response rating [3, 16]: 100; Ryegrass, Italian plant response rating [5, 16]: 95; Plant response rating (scale of 0 to 100 where 0 is no effect and 100 is complete control), Pigweed [7]: 40; Pigweed plant response rating [7]: 65; Plant response rating, Pigweed [7, 13]: 80; Plant response rating, Pigweed [7, 14]: 70; Pigweed plant response rating [8, 11]: 70; Pigweed plant response rating [8, 12]: 70; Plant response rating, Pigweed ([8]; 13 to 15 days): 60; Pigweed plant response rating [8, 16]: 100; Plant response rating (scale of 0 to 100 where 0 is no effect and 100 is complete control), Morningglory [9]: 90; Morningglory plant response rating [9]: 98; Plant response rating, Morningglory [9, 13]: 100; Plant response rating, Morningglory [9, 14]: 95; Barnyardgrass plant response rating [10, 15]: 75; Barnyardgrass plant response rating [10, 12]: 100; Plant response rating, Barnyardgrass ([10]; 13 to 15 days): 100; Barnyardgrass plant response rating [10, 16]: 100
